Results from patent US10597370B2, “2-(benzothiazol-2-yl)-2-cyano-acetamide derivatives and their use as endothelial lipase inhibitors” (BRISTOL-MYERS SQUIBB COMPANY, priority 2016, dated 2020).

Target: T1, Endothelial lipase (EL) (Homo sapiens, UniProt Q9Y5X9)
T1 construct: transformed by RAGE technology (Athersys) to overexpress endogenous EL; endogenous in cells; the conditioned medium served as the enzyme source
T1 sequence (Q9Y5X9 21-500): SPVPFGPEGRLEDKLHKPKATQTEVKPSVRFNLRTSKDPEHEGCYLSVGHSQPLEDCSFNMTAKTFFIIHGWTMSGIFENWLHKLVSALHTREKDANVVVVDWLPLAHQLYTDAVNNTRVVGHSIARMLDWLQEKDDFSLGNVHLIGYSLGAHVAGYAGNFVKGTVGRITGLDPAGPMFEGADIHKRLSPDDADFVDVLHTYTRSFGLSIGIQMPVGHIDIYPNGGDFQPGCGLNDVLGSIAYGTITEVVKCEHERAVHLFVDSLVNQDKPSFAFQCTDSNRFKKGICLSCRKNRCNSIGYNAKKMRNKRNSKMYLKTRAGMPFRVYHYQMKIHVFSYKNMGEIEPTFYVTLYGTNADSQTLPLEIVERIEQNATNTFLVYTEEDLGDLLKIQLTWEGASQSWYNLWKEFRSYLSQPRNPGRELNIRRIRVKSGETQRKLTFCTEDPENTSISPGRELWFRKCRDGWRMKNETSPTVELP
Assay: Endothelial lipase (EL) enzymatic assay with fluorescent substrate A10070 in DMPG vesicles
Type: biochemical
Details: conditioned media from HT-1080 cells overexpressing endogenous EL; 20 min preincubation at 37° C.
Protocol: Endothelial lipase activity was measured using a fluorescent substrate, A10070, (Invitrogen, CA) doped into an artificial vesicle containing DMPG (Avanti Polar Lipids) as the excipient. Vesicles were prepared by combining 285 μL of 1 mM DMPG in a 1:1 mixture of MeOH and CHCl3 with 15 μL of 1 mM A10070 in a 1:1 mixture of MeOH and CHCl3. The mixture was dried under nitrogen and resuspended in 150 μL of 50 mM HEPES pH 8.0 buffer containing 100 mM NaCl and 0.2 mM EDTA. The sample was allowed to sit at rt for 15 min and then was sonicated 3×4 mins on ice with a Branson Sonicator using duty cycle 1. This preparation provides vesicles with a mole fraction of 0.05 for the FRET substrate.
The enzymatic assay was measured using white, opaque 96-well half area plates. Each well contained 60 μL of assay buffer (50 mM HEPES pH 8.0, 50 mM NaCl and 1 mM CaCl2) and 2 ul of a DMSO solution containing compound of interest. Conditioned media obtained from HT-1080 cells, which were transformed by RAGE technology (Athersys) to overexpress endogenous EL, was added and the reaction was allowed to incubate for 20 min at 37° C. with gentle agitation. The reaction was started by the addition of 20 μL of a 1:4 dilution of vesicles. The final total reaction volume was 100 μL. The reaction rates were measured on a Gemini plate reader with an excitation wavelength of 488 nm and an emission of 530 nm. Readings were taken every 20 seconds for 10 min with agitation between each reading. The slope of the linear portion of the readout was used to calculate the rate of the reaction.

IC50 [nM] | SMILES
18 | N#CC(C(=O)NCC(=O)NC1CC1)c1nc2ccc(-c3cccc(C(=O)N4CCOCC4)c3)cc2s1 (centres unmarked) [Example 10, 2-cyano-N-[(cyclopropyl-carbamoyl)methyl]-2-{6-[3-(morpholine-4-carbonyl)phenyl]-1,3-benzothiazol-2-yl]acetamide]
172 | N#CC(C(=O)NCC(=O)NC1CC1)c1nc2ccc(-c3ccc(F)nc3)cc2s1 (centres unmarked) [Example 16, 2-cyano-N-[(cyclopropyl-carbamoyl)methyl]-2-[6-(6-fluoropyridin-3-yl)-1,3-benzothiazol-2-yl] acetamide]
